According to patent publication US10897901B2, “Herbicidal composition” (FMC Corporation, priority 2007, dated 2021):

Tests used:
Format in all cases: in vivo
[1] = test system: Yellow Nutsedge (Cyperus esculentus); assay: Example 2 post-emergent turf plot test, nutsedge
Experimental: (§1) The experimental design used randomized plots with post-emergent treatment and three replications per test trial. The size of each experimental plot was 4 feet by 6 feet. The application of each test composition was performed with pressurized back-pack sprayers, calibrated to spray 200 gallons per acre. Test compositions containing sulfentrazone (DISMISS™ Turf Herbicide), quinclorac, (FACET® 75 DF herbicide) or a mixture of sulfentrazone and quinclorac in a one to three ratio, prepared as described above, were diluted with water to provide the appropriate test rate concentrations.
(§2) The control of weeds was evaluated in each experimental plot from 1 to 27 days after treatment (DAT) of each test rate. The results, shown as an average of the replications, were compared with results observed in untreated control plots in the same trials.

[2] = test system: yellow nutsedge (Cyperus esculentusi); assay: Example 3 post-emergence greenhouse pot test, nutsedge
Experimental: Test compositions containing sulfentrazone (DISMISS™ Turf Herbicide), quniclorac, (DRIVE® 75 DF Herbicide) or mixture of sulfentrazone and quinclorac in a three to one ratio, prepared as described above, were diluted with water to provide the appropriate test rate concentrations. A nonionic surfactant (0.25%) was added to each test solution.
The test weeds include Red River crabgrass (Digitaria ciliaris) and yellow nutsedge (Cyperus esculentusi).
(§3) For post-emergence testing, three disposable 3 inch square pots for each rate of application of each herbicide were filled with a soil, comprised of peat moss, vermiculite, bark ash, pine bark, limestone and a wetting agent, to which 8 to 10 seeds were planted. The pots were placed in a greenhouse and watered daily, thus allowing the seeds to germinate and the foliage to develop.
(§4) Pots designated for treatment were placed on a conveyor belt and the conveyor belt fed under a spray nozzle mounted about ten inches above the foliage. The spray of herbicidal solution was commenced and once stabilized; the pots were passed under the spray at a speed to receive a coverage equivalent of 30 gallons per acre. The application rates are those shown in Table 3 below for the individual herbicidal solutions and the mixture of sulfentrazone and quinclorac. The post-emergence pots were immediately placed in the green-house and not watered until 24 hours after treatment with the test solution. Thereafter they were regularly watered at ground level. The control of weeds was evaluated in each experimental test from 1 to 22 days after treatment (DAT). The results, shown as an average of the replications, were compared with results observed in untreated control pots in the same tests.
(§5) Percent control was determined by a method similar to the 0 to 100 rating system disclosed in “Research Methods in Weed Science,” 2nd ed., B. Truelove, Ed.; Southern Weed Science Society; Auburn University, Auburn, Ala., 1977.

[3] = test system: Field Violet (Viola arvensis); assay: Example 2 post-emergent turf plot test, violet
Experimental: as §1, §2

[4] = test system: yellow nutsedge (Cyperus esculentusi); assay: Example 4 post-emergence greenhouse pot test, nutsedge
Experimental: Test compositions containing sulfentrazone (75 DF formulation), quniclorac, (DRIVE® 75 DF Herbicide) or mixtures of sulfentrazone and quinclorac at ratios of 1:1 to 1:5, were diluted with water to provide the appropriate test rate concentrations. A nonionic surfactant (0.25%) was added to each test solution. The test weeds include crabgrass (Digitaria sp), Chickweed (Stellaria media), Hemp Sesbania (Sesbania exaltata), Kochia (Kochia scoparia), Ivyleaf Morningglory (Ipomoea hederacea), Redroot Pigweed (Amaranthus retroflexus) and yellow nutsedge (Cyperus esculentusi).
as §3, with “develop for 22 days, 3 months for Kochia.” for “develop.”
as §4, with “Table 4” for “Table 3”, “from 2” for “from 1”, “to 20” for “to 22”
as §5

[5] = test system: Smooth Crabgrass (Digitaria ischaemum); assay: Example 2 post-emergent turf plot test, tillered crabgrass
Experimental: as §1, §2

[6] = 1-5 leaf stage, 7 days old, 0.375 lb ai/acre, 1 DAT
[7] = 1-5 leaf stage, 7 days old, 0.375 lb ai/acre, 3 DAT
[8] = 1-5 leaf stage, 7 days old, 0.375 lb ai/acre, 7 DAT
[9] = 1-5 leaf stage, 7 days old, 0.375 lb ai/acre, 14 DAT
[10] = 1-5 leaf stage, 7 days old, 0.375 lb ai/acre, 21 DAT
[11] = 5-7 leaves, cut to 6 cm tall, 28 days old, 0.375 lb ai/acre, 1 DAT
[12] = 5-7 leaves, cut to 6 cm tall, 28 days old, 0.375 lb ai/acre, 3 DAT
[13] = 5-7 leaves, cut to 6 cm tall, 28 days old, 0.375 lb ai/acre, 7 DAT
[14] = 5-7 leaves, cut to 6 cm tall, 28 days old, 0.375 lb ai/acre, 14 DAT
[15] = 5-7 leaves, cut to 6 cm tall, 28 days old, 0.375 lb ai/acre, 21 DAT

## Cc1nn(-c2cc(NS(C)(=O)=O)c(Cl)cc2Cl)c(=O)n1C(F)F [A, N-[2,4-dichloro-5-[4-(difluoromethyl)-4,5-dihydro-3-methyl-5-oxo-1H-1,2,4-triazol-1-yl]phenyl]methanesulfonamide]
[1]; 0.57 lb ai/acre, 7 DAT
  Percent Control: 100%
[1]; 0.57 lb ai/acre, 14 DAT
  Percent Control: 100%
[1]; 0.57 lb ai/acre, 21 DAT
  Percent Control: 100%
[2]; 1-5 leaf stage, 7 days old, 0.125 lb ai/acre, 1 DAT
  Percent Control: 50%
[2]; 1-5 leaf stage, 7 days old, 0.125 lb ai/acre, 3 DAT
  Percent Control: 50%
[2]; 1-5 leaf stage, 7 days old, 0.125 lb ai/acre, 7 DAT
  Percent Control: 63%
[2]; 1-5 leaf stage, 7 days old, 0.125 lb ai/acre, 14 DAT
  Percent Control: 70%
[2]; 1-5 leaf stage, 7 days old, 0.125 lb ai/acre, 21 DAT
  Percent Control: 67%
[2]; 1-5 leaf stage, 7 days old, 0.25 lb ai/acre, 1 DAT
  Percent Control: 70%
[2]; 1-5 leaf stage, 7 days old, 0.25 lb ai/acre, 3 DAT
  Percent Control: 85%
[2]; 1-5 leaf stage, 7 days old, 0.25 lb ai/acre, 7 DAT
  Percent Control: 77%
[2]; 1-5 leaf stage, 7 days old, 0.25 lb ai/acre, 14 DAT
  Percent Control: 68%
[2]; 1-5 leaf stage, 7 days old, 0.25 lb ai/acre, 21 DAT
  Percent Control: 50%
[2]; [6]
  Percent Control: 75%
[2]; [7]
  Percent Control: 91%
[2]; [8]
  Percent Control: 95%
[2]; [9]
  Percent Control: 73%
[2]; [10]
  Percent Control: 70%
[2]; 5-7 leaves, cut to 6 cm tall, 28 days old, 0.125 lb ai/acre, 1 DAT
  Percent Control: 0%
[2]; 5-7 leaves, cut to 6 cm tall, 28 days old, 0.125 lb ai/acre, 3 DAT
  Percent Control: 80%
[2]; 5-7 leaves, cut to 6 cm tall, 28 days old, 0.125 lb ai/acre, 7 DAT
  Percent Control: 85%
[2]; 5-7 leaves, cut to 6 cm tall, 28 days old, 0.125 lb ai/acre, 14 DAT
  Percent Control: 70%
[2]; 5-7 leaves, cut to 6 cm tall, 28 days old, 0.125 lb ai/acre, 21 DAT
  Percent Control: 60%
[2]; 5-7 leaves, cut to 6 cm tall, 28 days old, 0.25 lb ai/acre, 1 DAT
  Percent Control: 0%
[2]; 5-7 leaves, cut to 6 cm tall, 28 days old, 0.25 lb ai/acre, 3 DAT
  Percent Control: 75%
[2]; 5-7 leaves, cut to 6 cm tall, 28 days old, 0.25 lb ai/acre, 7 DAT
  Percent Control: 80%
[2]; 5-7 leaves, cut to 6 cm tall, 28 days old, 0.25 lb ai/acre, 14 DAT
  Percent Control: 80%
[2]; 5-7 leaves, cut to 6 cm tall, 28 days old, 0.25 lb ai/acre, 21 DAT
  Percent Control: 90%
[2]; [11]
  Percent Control: 0%
[2]; [12]
  Percent Control: 90%
[2]; [13]
  Percent Control: 90%
[2]; [14]
  Percent Control: 90%
[2]; [15]
  Percent Control: 90%
[3]; 0.57 lb ai/acre, 7 DAT
  Percent Control: 66%
[3]; 0.57 lb ai/acre, 14 DAT
  Percent Control: 78%
[3]; 0.57 lb ai/acre, 21 DAT
  Percent Control: 69%
[4]; 0.25 lb ai/acre, 2 DAT
  Percent Control: 25%
[4]; 0.25 lb ai/acre, 7 DAT
  Percent Control: 60%
[4]; 0.25 lb ai/acre, 14 DAT
  Percent Control: 85%
[4]; 0.25 lb ai/acre, 20 DAT
  Percent Control: 95%
[5]; 0.57 lb ai/acre, 7 DAT
  Percent Control: 34%
[5]; 0.57 lb ai/acre, 14 DAT
  Percent Control: 36%
[5]; 0.57 lb ai/acre, 21 DAT
  Percent Control: 52%

## O=C(O)c1c(Cl)ccc2cc(Cl)cnc12 [B, 3,7-dichloro-8-quinolinecarboxylic acid]
[1]; 0.75 lb ai/acre, 7 DAT
  Percent Control: 83%
[1]; 0.75 lb ai/acre, 14 DAT
  Percent Control: 54%
[1]; 0.75 lb ai/acre, 21 DAT
  Percent Control: 37%
[2]; [6]
  Percent Control: 0%
[2]; [7]
  Percent Control: 0%
[2]; [8]
  Percent Control: 0%
[2]; [9]
  Percent Control: 0%
[2]; [10]
  Percent Control: 0%
[2]; 1-5 leaf stage, 7 days old, 0.75 lb ai/acre, 1 DAT
  Percent Control: 0%
[2]; 1-5 leaf stage, 7 days old, 0.75 lb ai/acre, 3 DAT
  Percent Control: 0%
[2]; 1-5 leaf stage, 7 days old, 0.75 lb ai/acre, 7 DAT
  Percent Control: 0%
[2]; 1-5 leaf stage, 7 days old, 0.75 lb ai/acre, 14 DAT
  Percent Control: 0%
[2]; 1-5 leaf stage, 7 days old, 0.75 lb ai/acre, 21 DAT
  Percent Control: 0%
[2]; 1-5 leaf stage, 7 days old, 1.0 lb ai/acre, 1 DAT
  Percent Control: 0%
[2]; 1-5 leaf stage, 7 days old, 1.0 lb ai/acre, 3 DAT
  Percent Control: 0%
[2]; 1-5 leaf stage, 7 days old, 1.0 lb ai/acre, 7 DAT
  Percent Control: 0%
[2]; 1-5 leaf stage, 7 days old, 1.0 lb ai/acre, 14 DAT
  Percent Control: 0%
[2]; 1-5 leaf stage, 7 days old, 1.0 lb ai/acre, 21 DAT
  Percent Control: 0%
[2]; [11]
  Percent Control: 0%
[2]; [12]
  Percent Control: 5%
[2]; [13]
  Percent Control: 5%
[2]; [14]
  Percent Control: 5%
[2]; [15]
  Percent Control: 0%
[2]; 5-7 leaves, cut to 6 cm tall, 28 days old, 0.75 lb ai/acre, 1 DAT
  Percent Control: 0%
[2]; 5-7 leaves, cut to 6 cm tall, 28 days old, 0.75 lb ai/acre, 3 DAT
  Percent Control: 0%
[2]; 5-7 leaves, cut to 6 cm tall, 28 days old, 0.75 lb ai/acre, 7 DAT
  Percent Control: 2%
[2]; 5-7 leaves, cut to 6 cm tall, 28 days old, 0.75 lb ai/acre, 14 DAT
  Percent Control: 2%
[2]; 5-7 leaves, cut to 6 cm tall, 28 days old, 0.75 lb ai/acre, 21 DAT
  Percent Control: 0%
[2]; 5-7 leaves, cut to 6 cm tall, 28 days old, 1.0 lb ai/acre, 1 DAT
  Percent Control: 0%
[2]; 5-7 leaves, cut to 6 cm tall, 28 days old, 1.0 lb ai/acre, 3 DAT
  Percent Control: 5%
[2]; 5-7 leaves, cut to 6 cm tall, 28 days old, 1.0 lb ai/acre, 7 DAT
  Percent Control: 5%
[2]; 5-7 leaves, cut to 6 cm tall, 28 days old, 1.0 lb ai/acre, 14 DAT
  Percent Control: 5%
[2]; 5-7 leaves, cut to 6 cm tall, 28 days old, 1.0 lb ai/acre, 21 DAT
  Percent Control: 0%
[3]; 0.75 lb ai/acre, 7 DAT
  Percent Control: 46%
[3]; 0.75 lb ai/acre, 14 DAT
  Percent Control: 48%
[3]; 0.75 lb ai/acre, 21 DAT
  Percent Control: 51%
[4]; 0.25 lb ai/acre, 2 DAT
  Percent Control: 0%
[4]; 0.25 lb ai/acre, 7 DAT
  Percent Control: 0%
[4]; 0.25 lb ai/acre, 14 DAT
  Percent Control: 0%
[4]; 0.25 lb ai/acre, 20 DAT
  Percent Control: 0%
[4]; 0.5 lb ai/acre, 2 DAT
  Percent Control: 0%
[4]; 0.5 lb ai/acre, 7 DAT
  Percent Control: 0%
[4]; 0.5 lb ai/acre, 14 DAT
  Percent Control: 0%
[4]; 0.5 lb ai/acre, 20 DAT
  Percent Control: 0%
[4]; 0.75 lb ai/acre, 2 DAT
  Percent Control: 0%
[4]; 0.75 lb ai/acre, 7 DAT
  Percent Control: 0%
[4]; 0.75 lb ai/acre, 14 DAT
  Percent Control: 0%
[4]; 0.75 lb ai/acre, 20 DAT
  Percent Control: 0%
[4]; 1.0 lb ai/acre, 2 DAT
  Percent Control: 0%
[4]; 1.0 lb ai/acre, 7 DAT
  Percent Control: 0%
[4]; 1.0 lb ai/acre, 14 DAT
  Percent Control: 0%
[4]; 1.0 lb ai/acre, 20 DAT
  Percent Control: 0%
[4]; 1.25 lb ai/acre, 2 DAT
  Percent Control: 0%
[4]; 1.25 lb ai/acre, 7 DAT
  Percent Control: 0%
[4]; 1.25 lb ai/acre, 14 DAT
  Percent Control: 0%
[4]; 1.25 lb ai/acre, 20 DAT
  Percent Control: 0%
[5]; 0.75 lb ai/acre, 7 DAT
  Percent Control: 54%
[5]; 0.75 lb ai/acre, 14 DAT
  Percent Control: 66%
[5]; 0.75 lb ai/acre, 21 DAT
  Percent Control: 67%
